In patent EP4434982A1, “(S)-2-(2-METHYLAZETIDIN-1-YL)PYRIMIDINE DERIVATIVE AND PHARMACEUTICAL COMPOSITION COMPRISING SAME” (LG Chem, Ltd., priority 2021, dated 2023):

target: T1, Ketohexokinase (KHK) (Homo sapiens, UniProt P50053); test: measurement of activity in vitro of ketohexokinase inhibitor (Transcreener ADP2 TR-FRET Red Assay, ADP produced); format: biochemical; settings: KHK pre-reacted with inhibitor 30 minutes, then substrate (ATP, fructose) 15 minutes; Ki by Morrison equation
T1 construct: His tag; made in house; host or cells: E. coli
T1 sequence (P50053 1-298): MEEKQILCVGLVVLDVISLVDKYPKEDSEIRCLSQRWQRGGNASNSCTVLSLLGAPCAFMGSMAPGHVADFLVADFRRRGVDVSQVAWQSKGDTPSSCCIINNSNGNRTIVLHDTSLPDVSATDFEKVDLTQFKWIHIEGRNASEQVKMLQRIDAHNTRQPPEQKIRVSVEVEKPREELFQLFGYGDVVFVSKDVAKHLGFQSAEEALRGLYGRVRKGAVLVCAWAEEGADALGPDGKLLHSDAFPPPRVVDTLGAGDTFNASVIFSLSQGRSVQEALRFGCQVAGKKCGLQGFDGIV
Protocol: Ketohexokinase (KHK) was expressed in E. Coli and purified using His tag. In order to measure the activity of the purified KHK, Transcreener ADP2 TR-FRET Red Assay kit of BellBrook Labs was used. A method of measuring the amount of ADP produced was used using TR-FRET after reacting a solution including a suitable concentration of KHK protein and ATP, and fructose for 15 minutes. In order to see the activity of a ketohexokinase (KHK) inhibitor, ketohexokinase (KHK) and a suitable concentration of an inhibitor were reacted first for 30 minutes, and then, reacted with a solution including the substrate of ketohexokinase (KHK) for 15 minutes. Then, reaction for TR-FRET was performed for 1 hour, and fluorescence was measured using Envision equipment of PerkinElmer. According to the optimization procedure of TR-FRET published by BellBrook Lab, the set value of the Envision equipment was determined.
The result values by concentration of the ketohexokinase (KHK) inhibitor were determined as the ratio of a wavelength of 665 nm and a wavelength of 615nm. The 665/615 ratio value by concentration of each inhibitor was converted to ADP concentration based on ADP standard curve, and inhibition activity Ki value was obtained using Morrison equation by statistical software (Prizm). Meanwhile, the Ki value is a value representing the binding affinity of the inhibitor and an enzyme, and a lower value means better inhibitory activity.

Compared with `CC(=O)N1CCN(C(=O)C[C@@H]2[C@@H]3C[C@H]2CN(c2nc(N4CC[C@@H]4C)nc4c2CCC4(F)F)C3)CC1` [Example 22, 1-(4-acetylpiperazin-1-yl)-2-((1R,5S,6S)-3-(7,7-difluoro-2-((S)-2-methylazetidin-1-yl)-6,7-dihydro-5H-cyclopenta[d]pyrimidin-4-yl)-3-azabicyclo[3.1.1]heptan-6-yl)ethan-1-one], `C[C@H]1CCN1c1nc(N2C[C@H]3C[C@@H](C2)[C@@H]3CC(=O)N2CCNCC2)c2c(n1)C(F)(F)CC2` [Example 21, 2-((1R,5S,6S)-3-(7,7-difluoro-2-((S)-2-methylazetidin-1-yl)-6,7-dihydro-5H-cyclopenta[d]pyrimidin-4-yl)-3-azabicyclo[3.1.0]heptan-6-yl)-1-(piperazin-1-yl)ethan-1-one] is lower in Ki: 0.1 to 1 µM for the first, at most 0.01 µM for the second.

`C[C@H]1CCN1c1nc(C2CCN(CC(=O)N3CCNCC3)CC2)c2c(n1)C(F)(F)CC2` [Example 17, (S)-2-(4-(7,7-difluoro-2-(2-methylazetidin-1-yl)-6,7-dihydro-5H-cyclopenta[d]pyrimidin-4-yl)piperidin-1-yl)-1-(piperazin-1-yl)ethan-1-one] and `C[C@H]1CCN1c1nc(N2CCN(CC(=O)N3CCNCC3)CC2)c2c(n1)C(F)(F)CC2` [Example 13, (S)-2-4-(7,7-difluoro-2-(2-methylazetidin-1-yl)-6,7-dihydro-5H-cyclopenta[d]pyrimidin-1-yl)-1-(piperazin-1-yl)ethan-1-one] cannot be ordered by Ki: at most 0.01 µM for the first, at most 0.01 µM for the second.

`Cc1c(-c2ccc(OCC(=O)N3CCNCC3)nc2)nc(N2CC[C@@H]2C)nc1C(F)(F)F` [Example 40, (S)-2-((5-(5-methyl-2-(2-methylazetidin-1-yl)-6-(trifluoromethyl)pyrimidin-4-yl)pyridin-2-yl)oxy)-1-(piperazin-1-yl)ethan-1-one] and `C[C@H]1CCN1c1nc(-c2ccc(OCC(=O)N3CCNCC3)nc2)cc(C(F)(F)F)n1` [Example 39, (S)-2-((5-(2-(2-methylazetidin-1-yl)-6-(trifluoromethyl)pyrimidin-4-yl)pyridin-2-yl)oxy)-1-(piperazin-1-yl)ethan-1-one] cannot be ordered by Ki: at most 0.01 µM for the first, at most 0.01 µM for the second.

`C[C@H]1CCN1c1nc(-c2ccc(CC(=O)N3CCNCC3)cc2)c2c(n1)C(F)(F)CC2` [Example 30, (S)-2-(4-(7,7-difluoro-2-(2-methylazetidin-1-yl)-6,7-dihydro-5H-cyclopenta[d]pyrimidin-4-yl)phenyl)-1-(piperazin-1-yl)ethan-1-one] and `C[C@H]1CCN1c1nc(-c2ccc(OCC(=O)N3CCNCC3)cc2)c2c(n1)C(F)(F)CC2` [Example 32] cannot be ordered by Ki: at most 0.01 µM for the first, 0.01 to 0.1 µM for the second.

`C[C@H]1CCN1c1nc(N2C[C@H]3C[C@@H](C2)[C@@H]3CC(=O)N2CCNCC2)c2c(n1)C(F)(F)OCC2` [Example 24, 2-((1R,5S,6S)-3-(8,8-difluoro-2-((S)-2-methylazetidin-1-yl)-5,8-dihydro-6H-pyrazol[3,4-d]pyrimidin-4-yl)-3-azabicyclo[3.1.1]heptan-6-yl)-1-(piperazin-1-yl)ethan-1-one] and `CC1CCN1c1nc(N2CC3CC(C2)C3CC(=O)N2CCNCC2)c2c(n1)C(F)(F)CCC2` [Example 23, 2-((1R,5S,6S)-3-(8,8-difluoro-2-((S)-2-methylazetidin-1-yl)-5,6,7,8-tetrahydroquinazolin-4-yl)-3-azabicyclo[3.1.1]heptan-6-yl)-1-(piperazin-1-yl)ethan-1-one] fall in the same range of Ki: 0.01 to 0.1 µM for the first, 0.01 to 0.1 µM for the second.

`C[C@H]1CCN1c1nc(N2C[C@@H]3[C@@H](CC(=O)N4CCNC(=O)C4)[C@@H]3C2)c2c(n1)C(F)(F)CC2` [Example 20, 4-(2-((1R,5S,6R)-3-(7,7-difluoro-2-((S)-2-methylazetidin-1-yl)-6,7-dihydro-5H-cyclopenta[d]pyrimidin-4-yl)-3-azabicyclo[3.1.0]hexan-6-yl)acetyl)piperazin-2-one] and `C[C@H]1CCN1c1nc(N2C[C@@H]3[C@@H](CC(=O)N4CCN(C)CC4)[C@@H]3C2)c2c(n1)C(F)(F)CC2` [Example 19, 2-((1R,5S,6R)-3-(7,7-difluoro-2-((S)-2-methylazetidin-1-yl)-6,7-dihydro-5H-cyclopenta[d]pyrimidin-4-yl)-3-azabicyclo[3.1.0]hexan-6-yl)-1-(4-methylpiperazin-1-yl)ethan-1-one] cannot be ordered by Ki: at most 0.01 µM for the first, at most 0.01 µM for the second.

`C[C@H]1CCN1c1nc(-c2ccc(CC(=O)O)cc2)c2c(n1)C(F)(F)CC2` [Example 29] and `C[C@H]1CCN1c1nc(-c2ccc(OCC(=O)N3CCNCC3)nc2)c2c(n1)C(F)(F)CC2` [Example 37] cannot be ordered by Ki: 0.01 to 0.1 µM for the first, at most 0.01 µM for the second.

`C[C@H]1CCN1c1nc(-c2ccc(OCC(=O)N3CCNCC3)c(Cl)c2)c2c(n1)C(F)(F)CC2` [Example 35] and `C[C@H]1CCN1c1nc(-c2ccc(OCC(=O)N3CCCNCC3)c(Cl)c2)c2c(n1)C(F)(F)CC2` [Example 36, (S)-2-(2-(chloro-4-(7,7-difluoro-2-(2-methylazetidin-1-yl)-6,7-dihydro-5H-cyclopenta[d]pyrimidin-4-yl)phenoxy)-1-(1,4-diazepan-1-yl)ethan-1-one)] cannot be ordered by Ki: at most 0.01 µM for the first, at most 0.01 µM for the second.

First: C[C@H]1CCN1c1nc(N2CC(OCC(=O)N3CCNCC3)C2)cc(C(F)(F)F)n1 [Example 1, (S)-2-((1-(2-(2-methylazetidin-1-yl)-6-(trifluoromethyl)pyrimidin-4-yl)azetidin-3-yl)oxy)-1-(piperazin-1-yl)ethan-1-one]
Second: C[C@H]1CCN1c1nc(N2CC[C@H](OCC(=O)N3CCNCC3)C2)cc(C(F)(F)F)n1 [Example 6, 2-(((S)-1-(2-((S)-2-methylazetidin-1-yl)-6-(trifluoromethyl)pyrimidin-4-yl)pyrrolidin-3-yl)oxy)-1-(piperazin-1-yl)ethan-1-one]
The Ki of the first is lower: 0.01 to 0.1 µM for the first, 0.1 to 1 µM for the second.

`C[C@H]1CCN1c1nc(N2CCN(C(=O)CC(=O)N3CCNCC3)CC2)c2c(n1)C(F)(F)CC2` [Example 15] and `C[C@H]1CCN1c1nc(N2CC[C@H](CC(=O)N3CCNCC3)C2)c2c(n1)C(F)(F)CC2` [Example 9] cannot be ordered by Ki: at most 0.01 µM for the first, at most 0.01 µM for the second.

`Cc1c(N2CC(OCC(=O)N3CCNCC3)C2)nc(N2CC[C@@H]2C)nc1C(F)(F)F` [Example 26, (S)-2-((1-(5-methyl-2-(2-methylazetidin-1-yl)-6-(trifluoro)pyrimidin-4-yl)azetidin-3-yl)oxy)-1-(piperazin-1-yl)ethan-1-one] and `C[C@H]1CCN1c1nc(N2CC(OCC(=O)N3CCNCC3)C2)c(Cl)c(C(F)(F)F)n1` [Example 2, (S)-2-((1-(5-chloro-2-(2-methylazetidin-1-yl)-6-(trifluoromethyl)pyrimidin-4-yl)azetidin-3-yl)oxy)-1-(piperazin-1-yl)ethan-1-one] cannot be ordered by Ki: at most 0.01 µM for the first, at most 0.01 µM for the second.

`C[C@H]1CCN1c1nc(-c2ccc(CC(=O)N3CCNCC3)nc2)cc(C(F)(F)F)n1` [Example 31] and `C[C@H]1CCN1c1nc(N2CCN(CC(=O)N3CCNCC3)C(=O)C2)cc(C(F)(F)F)n1` [Example 12, (S)-4-(2-(2-methylazetidin-1-yl)-6-(trifluoromethyl)pyrimidin-4-yl)-1-(2-oxo-2-(piperazin-1-yl)ethyl)piperazin-2-one] cannot be ordered by Ki: at most 0.01 µM for the first, 0.01 to 0.1 µM for the second.

`C[C@H]1CCN1c1nc(N2C[C@@H]3[C@H](C2)[C@H]3CS(=O)(=O)N2CCNCC2)c2c(n1)C(F)(F)CC2` [Example 25, 7,7-difluoro-2-((S)-2-methylazetidin-1-yl)-4-((1R,5S,6S)-6-((piperazin-1-ylsulfonyl)methyl)-3-azabicyclo[3.1.0]hexan-3-yl)-6,7-dihydro-5H-cyclopenta[d]pyrimidine] and `C[C@H]1CCN1c1nc(N2CC(OCC(=O)N3CCNCC3)C2)c2c(n1)C(F)(F)CCC2` [Example 4] cannot be ordered by Ki: at most 0.01 µM for the first, 0.01 to 0.1 µM for the second.

`C[C@H]1CCN1c1nc(N2CCC(OCC(=O)N3CCNCC3)CC2)cc(C(F)(F)F)n1` [Example 27] and `Cc1c(N2CCC(OCC(=O)N3CCNCC3)CC2)nc(N2CC[C@@H]2C)nc1C(F)(F)F` [Example 28] fall in the same range of Ki: 0.01 to 0.1 µM for the first, 0.01 to 0.1 µM for the second.

`C[C@H]1CCN1c1nc(-c2cnc(OCC(=O)N3CCNCC3)c(Cl)c2)c2c(n1)C(F)(F)CC2` [Example 38] and `C[C@H]1CCN1c1nc(-c2ccc(OCC(=O)N3CCNCC3)c(F)c2)c2c(n1)C(F)(F)CC2` [Example 33] cannot be ordered by Ki: at most 0.01 µM for the first, 0.01 to 0.1 µM for the second.

`C[C@H]1CCN1c1nc(N2CC[C@@H](OCC(=O)N3CCNCC3)C2)c2c(n1)C(F)(F)CC2` [Example 8, 2-(((R)-1-(7,7-difluoro-2-((S)-2-methylazetidin-1-yl)-6,7-dihydro-5H-cyclopenta[d]pyrimidin-4-yl)pyrrolidin-3-yl)oxy)-1-(piperazin-1-yl)ethan-1-one] and `C[C@H]1CCN1c1nc(N2CCN(CC(=O)N3CCOCC3)CC2)c2c(n1)C(F)(F)CC2` [Example 14, (S)-2-4-(7,7-difluoro-2-(2-methylazetidin-1-yl)-6,7-dihydro-5H-cyclopenta[d]pyrimidin-1-yl)-1-(piperazin-1-yl)morpholinoethan-1-one] cannot be ordered by Ki: at most 0.01 µM for the first, 0.01 to 0.1 µM for the second.
